Data on nine compounds can be found in patent US7576125B2, “Melanogenesis inhibitor and skin preparation containing the same” (Takasago International Corporation, priority 2003, dated 2009).

What all share (type): cell-based
Data set [1] deals with B16 melanoma cells. The experiment in a line: Melanogenesis inhibition test (visual evaluation) using B16 melanoma cells. The settings on record: 3 days culture. As to the method:
The following tests a) and b) were conducted on the compounds shown in Synthesis Examples and Comparative Synthesis Examples to examine their melanogenesis-inhibiting effects. • a) Cytotoxicity test (using B16 melonoma cells) • b) Melanogenesis inhibition test (visual evaluation) (using B16 melonoma cells) Evaluation Methods
8×10^4 B16 melanoma cells were inoculated in a plastic-made culture flask (25 cm^2). The cells were cultured in a 10% serum-containing DMEN medium (produced by Nissui Pharmaceutical co., Ltd., trade name) in the presence of 5% carbon dioxide at 37° C. 3 days later, a test sample diluted with ethanol was added thereto, and culture was conducted for 3 days. After the completion of the culture, the medium was removed and the flask contents were washed with a phosphate buffer solution (hereinafter referred t as PBS). The cells were peeled from the flask inner wall using a medium containing trypsin and EDTA (ethylenediaminetetraacetic acid). The resulting cells suspension was centrifuged to recover cells. Part of the cells was taken and the number of cells was measured using a Coulter counter. […] A melanogenesis inhibition test was carried out in this concentration range. The cells obtained were washed once with PBS and then the whiteness of the precipitate was rated visually based on the following evaluation standard.
Evaluation Standard • −: Same as the solvent control (black) • +−: Slightly different from the solvent control (black-gray) • +: Clearly different from the solvent control (gray) • ++: Coloring of cells is very low (gray-white) • +++: No coloring of cells (white)

In data set [2] the test system is tyrosinase biosynthesis in B16 melanoma cells. The experiment in a line: Tyrosinase biosynthesis hindrance test (intra-cell tyrosinase activity). The settings on record: 2 days. Here is the method: A tyrosinase activity hindrance test and a tyrosinase biosynthesis hindrance test were conducted according to the following test methods to examine the mechanism for hindrance of melanin denovo synthesis. […] In this method, tyrosinase biosynthesis hindrance is indicated indirectly by measuring intra-cell tyrosinase activity. 100 μl of a suspension containing 3×10^5/ml of B16 melanoma cells was inoculated into a 96-well plate, and culture was made at 37° C. overnight in 5% CO2. Next day, the medium was changed with 200 μl of a sample-containing culture medium, and culture was made for 2 days under the same conditions. Thereafter, the supernatant liquid was removed and the residue was washed with 200 μl of a phosphate buffer solution twice. Then, 100 μl of 1% Triton X100 was added and the mixture was allowed to stand at room temperature for 1 hour, followed by gentle shaking. Next, 100 μl of 1% DOPA was added. Measurement was made in the same manner as in the above test method for tyrosinase activity hindrance.

In data set [3] the test system is B16 melanoma cells. The experiment in a line: Cell propagation rate / cytotoxicity by MTT method on parallel plate. In general terms: Formazan colour is commonly taken as a measure of viable cells.

With `CCOCc1ccc2c(c1)OCO2` [Synthesis Example 4, Piperonyl ethyl ether], in the data set on B16 melanoma cells [1] (Concentration 12.5 μg/ml), the “whiteness of the cell precipitate rated visually (melanogenesis inhibition)” value (“whiteness … (melanogenesis inhibition)” for short) is “−”. On the same count and under the same terms, the value for `CC(C)COCc1ccc2c(c1)OCO2` [Synthesis Example 6, Piperonyl isobutyl ether] was “++”. Turning to `O=c1cc(CO)occ1O` [kojic acid], the “Tyrosinase biosynthesis hindrance, Hindrance %” value in data set [2] (50 ppm), in data set [2] (100 ppm) and in data set [2] (200 ppm) was 21.0% in each case. Further, the entries for the “Cell propagation rate %” value in the data set on B16 melanoma cells [3] (50 ppm), in the data set on B16 melanoma cells [3] (100 ppm) and in the data set with B16 melanoma cells [3] (200 ppm) were 100.8%, 97.3% and 96.2%, respectively. With `COCc1ccc2c(c1)OCO2` [Synthesis Example 3, Piperonyl methyl ether], the “whiteness … (melanogenesis inhibition)” value with B16 melanoma cells [1] (Concentration 12.5 μg/ml) is listed as “−”. `CCCCCCCCOCc1ccc2c(c1)OCO2` [Synthesis Example 9, Piperonyl n-octyl ether]: the “whiteness … (melanogenesis inhibition)” value in the data set with B16 melanoma cells [1] (Concentration 6.3 μg/ml) and with B16 melanoma cells [1] (Concentration 12.5 μg/ml) was “+” in each case.

Consider `CCCCOCc1ccc2c(c1)OCO2` [Synthesis Example 2, piperonyl n-butyl ether], for which the “whiteness … (melanogenesis inhibition)” value with B16 melanoma cells [1] (Concentration 12.5 μg/ml) is “++”. Turning to `CCCOCc1ccc2c(c1)OCO2` [Synthesis Example 5, Piperonyl n-propyl ether], in the data set on B16 melanoma cells [1] (Concentration 12.5 μg/ml), the “whiteness … (melanogenesis inhibition)” value is on record as “+”.

Regarding `CCCCCCOCc1ccc2c(c1)OCO2` [Synthesis Example 8, Piperonyl n-hexyl ether], the “whiteness … (melanogenesis inhibition)” value in the data set on B16 melanoma cells [1] (Concentration 12.5 μg/ml) was “++”. Same read-out and setting: to `CC(C)CCOCc1ccc2c(c1)OCO2` [Synthesis Example 7, Piperonyl isoamyl ether] belongs “++”.
